The subject of one assay is NF-κB. In words: NF-κB activation measured by IκB-α phosphorylation/degradation in osteoclasts and dendritic cells (Western blot). The assay is classed as cell-based, mouse. The settings on record: osteoclasts and dendritic cells, beginning at 10 min of TRANCE, coinciding with peak of IκB-α phosphorylation. On the procedure:
FIG. 1. […] (A) Mature bone marrow-derived osteoclasts were stimulated for the indicated times with recombinant hCD8-TRANCE (TRANCE; 1 μg/ml). Levels of phosphorylated forms of p44/p42 ERK (p44 ERK^P and p42 ERK^P), IκBα (IκB-α^P) and PKB (PKB^P) in whole cell extracts were determined using phospho-peptide-specific antibodies as indicated in the figure. […] (B) as in (A) except the use of mature bone marrow-derived dendritic cells instead of osteoclasts.
FIG. 2. […] (A) Osteoclasts were serum starved and then pretreated for 90 min with LY294002 (10 μM), Herbimycin A (Herb. A; 10 μM), and PP1 (10 μM) inhibitors which are specific for PI3-kinase, PTKs, and Src-family kinases, respectively, were stimulated for indicated times with TRANCE (1 μg/ml). Levels of phosphorylated p44/p42 ERK, PKB, and IκB-α were determined as described in FIG. 1. Cells pretreated with vehicle (DMSO) were used as a negative control. (B) as in (A) except the use of mature bone marrow-derived dendritic cells.
Primary cells and cell lines. […] In brief, bone marrow cells from tibiae and femur of 4-6 week old mice (C57BL/6, Jackson Laboratories) were cultured overnight in media (α-MEM, 10% FCS) in the presence of CSF-1 (5 ng/ml). […] For experiments described in this study, only adherent cells were used after extensive washing. […] After allowing them adhere for 2 hours to a tissue culture dish, contaminating floater cells were washed away and mature dendritic cells were obtained by overnight culture.
Cell stimulation, cell transfection and in vitro assays. In vitro differentiated mature dendritic cells, macrophages and osteoclasts were washed to remove exogenous growth factors, cultured in media with low serum (0.5% FCS, 6 hours), then stimulated by adding various cytokines in the presence or absence of inhibitors for various times as indicated. After stimulation, the cells were washed in ice-cold PBS, and subjected to Western blot analysis or immunoprecipitation as described below. […]
(Immunoblotting shows a protein as a band on a membrane.)

For the next assay, the system named is mature osteoclasts. In words: Osteoclast survival assay (TRAP solution assay). The settings on record: 24 hours; TRANCE 5 μg/ml or CSF-1 10 ng/ml. The assay is classed as cell-based, mouse.
Assay [1] has as its target T1, TRANCE-R signaling complex (Mus musculus, UniProt O35305).
T1 construct: the endogenous TRANCE-R was immunoprecipitated from the extracts (2 mg of total protein); endogenous in cells; host or cells: mature bone marrow-derived dendritic cells of C57BL/6 mice
In words: TRANCE-R immunoprecipitation from dendritic cells: co-precipitated TRAF6/c-Src and SAM68 kinase assay. The class given is cell-based. On the procedure:
FIG. 5. Ligand dependant recruitment of endogenous TRAF6 and c-Src proteins to the TRANCE-R signaling complex. (A) Dendritic cells were stimulated with TRANCE (1 μg/ml) for the indicated times, lysed, and c-Src was immunoprecipitated from the extracts (400 μg total protein), using an anti-c-Src-specific monoclonal antibody (327). PTK activity of the c-Src immunoprecipitates was measured by in vitro kinase assays using SAM68 as a PTK substrate. The degree of SAM68 phosphorylation (SAM68^P) was determined by Western blot analysis using a phospho-tyrosine specific antibody (4G10) followed by densitometry. (B) Dendritic cells (3×10^7) were treated with TRANCE (1 μg/ml) for 5 minutes or left untreated (0 minutes). […] The degree of SAM68 phosphorylation (SAM68^P) was determined as in (A). The presence of endogenous TRAF6 or c-Src in the remaining α-TRANCE-R immunoprecipitates (IP) were analyzed by Western blotting using TRAF6 (H-274) and c-Src specific antibodies (N16), respectively, as indicated. […]
For the in vitro kinase-assays in FIGS. 3A, 4D, and 5B the beads were washed twice with extraction buffer and three times with kinase buffer (30 mM HEPES.NaOH (pH 7.4), 20 mM MgCl2, 2 mM MnCl2, 1 mM dithiothreitol). […] Phosphorylation of SAM68 was detected by autoradiography or by probing Western blots with 4G10. […]

Method for mature osteoclasts: TRAP solution assays were performed and percent survival calculated. The experiment was performed in triplicate and the mean values with positive standard deviations are shown. […] (E) Mature osteoclasts were washed extensively and then cultured for an additional 24 hr in media without (−) or with TRANCE (5 μg/ml; +) in the absence or presence of increasing doses (200 nM and 800 nM) of LY294002. TRAP solution assays were performed and percent survival was as described in Experimental Procedures. The experiment was performed in triplicate and the mean values with positive standard deviations are shown.
Osteoclast survival assays. In vitro differentiated mature osteoclasts were washed 3 times in media then further cultured for 24 hr in media alone (control) or in media with TRANCE (5 μg/ml) or CSF-1 (10 ng/ml) in the presence or absence of LY294002 as indicated.
Specific cell survival (%)=(A405, 24 hr−A405. background)*100/(A405, 0 hr−A405, background)

As for “TNF-related activation-induced cytokine [TRANCE]”, in the assay with NF-κB, the “total cellular IκB-α” value is given as “decrease”. Moreover, the “cytokine-promoted survival in c-Src−/− osteoclasts compared to wild-type” value with mature osteoclasts is “reduced”. The “TRAF6 and c-Src in the TRANCE-R complex” value in assay [1] (TRANCE 1 μg/ml 5 minutes vs untreated) is on record as “readily detected”. Besides, the “PTK activity of the receptor complex towards SAM68” value in assay [1] (TRANCE 1 μg/ml 5 minutes, in vitro kinase assay) is “acquired PTK activity”.

The values above are taken from patent US6492124B1, “Trance activated signal transduction pathways in osteoclasts” (The Rockefeller University, priority 1999, dated 2002).
